Source: the NIST ThermoML archive (doi:10.1016/j.jct.2017.03.006)

Columns and labels:
[1] = Liquid; for mass density: Vibrating tube method; for viscosity: Concentric cylinders viscometry
[2] = molar heat capacity at constant pressure; conditions: Liquid, Flow calorimetry

CCC(C)O (stereo not drawn) [butan-2-ol]
Conditions | mass density [kg/m3] | molar heat capacity at constant pressure [J/K/mol] | viscosity [mPa·s]
[1], 273.15 K, 100 kPa | 822.3 | – | –
[1], 273.15 K, 1000 kPa | 822.7 | – | –
[1], 273.15 K, 2000 kPa | 823.4 | – | –
[1], 273.15 K, 5000 kPa | 825.4 | – | –
[1], 273.15 K, 10000 kPa | 828.7 | – | –
[1], 273.15 K, 15000 kPa | 831.8 | – | –
[1], 273.15 K, 20000 kPa | 834.7 | – | –
[1], 273.15 K, 30000 kPa | 840.4 | – | –
[1], 273.15 K, 40000 kPa | 845.7 | – | –
[1], 273.15 K, 50000 kPa | 850.7 | – | –
[1], 273.15 K, 60000 kPa | 855.4 | – | –
[1], 273.15 K, 70000 kPa | 859.9 | – | –
[1], 273.15 K, 80000 kPa | 864.3 | – | –
[1], 273.15 K, 90000 kPa | 868.4 | – | –
[1], 273.15 K, 100000 kPa | 872.4 | – | –
[1], 273.15 K, 110000 kPa | 876.3 | – | –
[1], 273.15 K, 120000 kPa | 879.9 | – | –
[1], 273.15 K, 130000 kPa | 883.5 | – | –
[1], 273.15 K, 140000 kPa | 887.2 | – | –
[1], 293.15 K, 100 kPa | 806.3 | – | 3.725
[1], 293.15 K, 1000 kPa | 807 | – | –
[1], 293.15 K, 2000 kPa | 807.8 | – | –
[1], 293.15 K, 5000 kPa | 810 | – | –
[1], 293.15 K, 10000 kPa | 813.6 | – | –
[1], 293.15 K, 15000 kPa | 817 | – | –
[1], 293.15 K, 20000 kPa | 820.2 | – | –
[1], 293.15 K, 30000 kPa | 826.5 | – | –
[1], 293.15 K, 40000 kPa | 832.3 | – | –
[1], 293.15 K, 50000 kPa | 837.7 | – | –
[1], 293.15 K, 60000 kPa | 842.8 | – | –
[1], 293.15 K, 70000 kPa | 847.7 | – | –
[1], 293.15 K, 80000 kPa | 852.3 | – | –
[1], 293.15 K, 90000 kPa | 856.7 | – | –
[1], 293.15 K, 100000 kPa | 860.9 | – | –
[1], 293.15 K, 110000 kPa | 865 | – | –
[1], 293.15 K, 120000 kPa | 868.8 | – | –
[1], 293.15 K, 130000 kPa | 872.7 | – | –
[1], 293.15 K, 140000 kPa | 876.3 | – | –
[1], 303.15 K, 100 kPa | – | – | 2.555
[1], 313.15 K, 100 kPa | 789.4 | – | 1.814
[1], 313.15 K, 1000 kPa | 790.1 | – | –
[1], 313.15 K, 2000 kPa | 791 | – | –
[1], 313.15 K, 5000 kPa | 793.5 | – | –
[1], 313.15 K, 10000 kPa | 797.5 | – | –
[1], 313.15 K, 15000 kPa | 801.4 | – | –
[1], 313.15 K, 20000 kPa | 805.1 | – | –
[1], 313.15 K, 30000 kPa | 811.9 | – | –
[1], 313.15 K, 40000 kPa | 818.3 | – | –
[1], 313.15 K, 50000 kPa | 824.1 | – | –
[1], 313.15 K, 60000 kPa | 829.6 | – | –
[1], 313.15 K, 70000 kPa | 835 | – | –
[1], 313.15 K, 80000 kPa | 839.9 | – | –
[1], 313.15 K, 90000 kPa | 844.6 | – | –
[1], 313.15 K, 100000 kPa | 849 | – | –
[1], 313.15 K, 110000 kPa | 853.3 | – | –
[1], 313.15 K, 120000 kPa | 857.5 | – | –
[1], 313.15 K, 130000 kPa | 861.5 | – | –
[1], 313.15 K, 140000 kPa | 865.4 | – | –
[1], 323.15 K, 100 kPa | – | – | 1.331
[1], 333.15 K, 100 kPa | 770.7 | – | 1.007
[1], 333.15 K, 1000 kPa | 771.6 | – | –
[1], 333.15 K, 2000 kPa | 772.6 | – | –
[1], 333.15 K, 5000 kPa | 775.5 | – | –
[1], 333.15 K, 10000 kPa | 780.1 | – | –
[1], 333.15 K, 15000 kPa | 784.4 | – | –
[1], 333.15 K, 20000 kPa | 788.6 | – | –
[1], 333.15 K, 30000 kPa | 796.2 | – | –
[1], 333.15 K, 40000 kPa | 803.2 | – | –
[1], 333.15 K, 50000 kPa | 809.6 | – | –
[1], 333.15 K, 60000 kPa | 815.7 | – | –
[1], 333.15 K, 70000 kPa | 821.4 | – | –
[1], 333.15 K, 80000 kPa | 826.7 | – | –
[1], 333.15 K, 90000 kPa | 831.8 | – | –
[1], 333.15 K, 100000 kPa | 836.6 | – | –
[1], 333.15 K, 110000 kPa | 841.2 | – | –
[1], 333.15 K, 120000 kPa | 845.5 | – | –
[1], 333.15 K, 130000 kPa | 849.8 | – | –
[1], 333.15 K, 140000 kPa | 853.9 | – | –
[2], 293.15 K, 100 kPa | – | 189.1 | –
[2], 293.15 K, 5000 kPa | – | 187.1 | –
[2], 293.15 K, 10000 kPa | – | 185.5 | –
[2], 293.15 K, 15000 kPa | – | 185.2 | –
[2], 293.15 K, 20000 kPa | – | 183.6 | –
[2], 293.15 K, 25000 kPa | – | 182.7 | –
[2], 313.15 K, 100 kPa | – | 214.9 | –
[2], 313.15 K, 5000 kPa | – | 213.1 | –
[2], 313.15 K, 10000 kPa | – | 211.1 | –
[2], 313.15 K, 15000 kPa | – | 209.4 | –
[2], 313.15 K, 20000 kPa | – | 207.2 | –
[2], 313.15 K, 25000 kPa | – | 204.9 | –
